Laboratory results as given in article PMC2995015 (Biochemistry, 2010).
Substitutions are numbered along the chain they refer to.

Columns and labels:
Format in all cases: cell-based
PMAT mutant Y112W [1] = biological target: T1, PMAT mutant Y112W (Homo sapiens, UniProt Q7RTT9, Y112W); assay: Concentration-dependent transport kinetics in stably transfected MDCK cells; details: for Km / Vmax: Y112W, MDCK cells, 1 min, 37°C
T1 sequence (Q7RTT9 1-530 Y112W): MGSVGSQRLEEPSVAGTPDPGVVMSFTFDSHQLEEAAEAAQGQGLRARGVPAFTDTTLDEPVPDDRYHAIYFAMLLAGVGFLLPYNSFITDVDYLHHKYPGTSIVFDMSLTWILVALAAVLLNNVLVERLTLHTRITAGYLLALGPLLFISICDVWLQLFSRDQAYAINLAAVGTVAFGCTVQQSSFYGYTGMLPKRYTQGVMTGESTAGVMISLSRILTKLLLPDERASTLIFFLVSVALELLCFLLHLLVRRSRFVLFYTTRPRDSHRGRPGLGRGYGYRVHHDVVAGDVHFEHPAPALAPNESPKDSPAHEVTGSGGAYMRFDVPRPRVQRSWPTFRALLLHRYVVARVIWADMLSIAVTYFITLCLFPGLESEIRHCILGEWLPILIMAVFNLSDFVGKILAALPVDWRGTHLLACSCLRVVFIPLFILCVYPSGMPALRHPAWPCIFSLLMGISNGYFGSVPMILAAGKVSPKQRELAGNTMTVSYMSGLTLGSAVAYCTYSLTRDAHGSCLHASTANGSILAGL

PMAT mutant Y85W [2] = biological target: T2, PMAT mutant Y85W (Homo sapiens, UniProt Q7RTT9, Y85W); assay: as above; details: for Km / Vmax: Y85W, MDCK cells, 1 min, 37°C
T2 sequence (Q7RTT9 1-530 Y85W): T1 sequence (Q7RTT9 1-530 Y112W) with Y85W, W112Y

PMAT mutant Y112W [3] = biological target: T1, PMAT mutant Y112W; assay: Single-concentration 3H-substrate uptake in stably transfected MDCK cells; details: MPP+ 1 μM, 5-HT 10 μM, dopamine 10 μM, 4 min, 37°C
PMAT wild type = biological target: T3, PMAT wild type (Homo sapiens, UniProt Q7RTT9); assay: Concentration-dependent transport kinetics in stably transfected MDCK cells; details: 1 min, 37°C
T3 sequence (Q7RTT9 1-530): T1 sequence (Q7RTT9 1-530 Y112W) with W112Y

PMAT mutant Y85W [4] = biological target: T2, PMAT mutant Y85W; assay: Single-concentration 3H-substrate uptake in stably transfected MDCK cells; details: MPP+ 1 μM, 5-HT 10 μM, dopamine 10 μM, 4 min, 37°C
PMAT mutant Y112S = biological target: T4, PMAT mutant Y112S (Homo sapiens, UniProt Q7RTT9, Y112S); assay: Uptake of uridine in the presence of NBMPR in stably transfected MDCK cells; details: 0.5 μM NBMPR, vs vector-transfected cells
T4 sequence (Q7RTT9 1-530 Y112S): T1 sequence (Q7RTT9 1-530 Y112W) with W112S

PMAT mutant Y85W [5] = biological target: T2, PMAT mutant Y85W; assay: as above; details: 0.5 μM NBMPR, vs vector-transfected cells
PMAT mutant Y85W [6] = biological target: T2, PMAT mutant Y85W; assay: Uridine inhibition of organic cation transport in stably transfected MDCK cells; details: uridine 1 mM; data not shown
PMAT mutant Y112A = biological target: T5, PMAT mutant Y112A (Homo sapiens, UniProt Q7RTT9, Y112A); assay: Uptake of uridine in the presence of NBMPR in stably transfected MDCK cells; details: 0.5 μM NBMPR, vs vector-transfected cells
T5 sequence (Q7RTT9 1-530 Y112A): T1 sequence (Q7RTT9 1-530 Y112W) with W112A

WT PMAT = biological target: T6, WT PMAT (Homo sapiens, UniProt Q7RTT9); assay: as above; details: 0.5 μM NBMPR, vs vector-transfected cells
T6 sequence (Q7RTT9 1-530): T1 sequence (Q7RTT9 1-530 Y112W) with W112Y

| Structure (SMILES) | transport efficiencies, % of the WT PMAT (PMAT mutant Y112W [1]; Y112W vs WT PMAT) | Km (PMAT mutant Y112W [1]) [µM] | Vmax (PMAT mutant Y112W [1]) [nmol/mg protein/min] | Km (PMAT mutant Y85W [2]) [µM] | Vmax (PMAT mutant Y85W [2]) [nmol/mg protein/min] | activity retained compared to cells expressing WT PMAT (PMAT mutant Y112W [3]) | Km (PMAT wild type) [µM] | Vmax (PMAT wild type) [nmol/mg protein/min] | reduction in Vmax (PMAT mutant Y112W [1]; Y112W vs WT PMAT) [fold] | increase in maximal velocity (Vmax) (PMAT mutant Y85W [2]; Y85W vs WT PMAT) [fold] | increase in transport efficiency (Vmax/Km) (PMAT mutant Y85W [2]; Y85W vs WT PMAT) | transport activity compared to WT PMAT (PMAT mutant Y85W [4]) | transport activity for uridine (PMAT mutant Y112S) | transport activity for uridine (PMAT mutant Y85W [5]) | inhibitory effect on Y85W-mediated organic cations transport (PMAT mutant Y85W [6]) | transport activity for uridine (PMAT mutant Y112A) | transport activity for uridine (WT PMAT) |
| --- | --- | --- | --- | --- | --- | --- | --- | --- | --- | --- | --- | --- | --- | --- | --- | --- | --- |
| NCCc1ccc(O)c(O)c1 [Dopamine, dopamine] | 60–70% | 88 ± 6.8 | 1.03 ± 0.09 | 243 ± 30.4 | 3.87 ± 0.14 | 50–60% | 244 ± 16.2 | 4.12 ± 0.35 | – | – | – | – | – | – | – | – | – |
| C[n+]1ccc(-c2ccccc2)cc1 [MPP^+, 1-methyl-4-phenylpyridinium] | – | 147 ± 36.3 | 0.23 ± 0.02 | 31.1 ± 6.9 | 0.94 ± 0.10 | less than 20% | 42.2 ± 5 | 0.60 ± 0.04 | 2.6 | 1.6 | about 2 fold | significantly higher transport activity | – | – | – | – | – |
| NCCc1c[nH]c2ccc(O)cc12 [Serotonin, serotonin] | – | 104 ± 13.2 | 1.04 ± 0.13 | 308 ± 50.8 | – | – | 168 ± 18.9 | – | – | – | – | – | – | – | – | – | – |
| O=c1ccn([C@@H]2O[C@H](CO)[C@@H](O)[C@H]2O)c(=O)[nH]1 [uridine] | – | – | – | – | – | – | – | – | – | – | – | – | no statistically significant transport activity | no statistically significant transport activity | no significant inhibitory effect | no statistically significant transport activity | no statistically significant transport activity |
